In PubChem BioAssay (NCI):
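Tested at 5 concentrations; 48 h exposure; 96-well plates; endpoints linearly interpolated, else capped at highest concentration. Here, GI50 denotes the concentration required for 50% inhibition of growth. TGI: total growth inhibition.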

Assays:
Assay in all cases: NCI-60 cell line screen, 48 h
[1] = test system: MDA-MB-435
[2] = test system: IGROV1 ovarian
[3] = test system: NCI/ADR-RES ovarian
[4] = test system: BT-549 breast
[5] = test system: SNB-19 CNS
[6] = test system: NCI-H460 lung
[7] = test system: DU-145 prostate
[8] = test system: T-47D breast
[9] = test system: RPMI-8226 leukemia
[10] = test system: HOP-62 NSCLC
[11] = test system: SF-539 CNS
[12] = test system: SNB-75 CNS
[13] = test system: MDA-MB-231 breast
[14] = test system: OVCAR-4 ovarian
[15] = test system: A549 NSCLC
[16] = test system: SK-OV-3 ovarian
[17] = test system: M14 melanoma
[18] = test system: SN12C renal
[19] = test system: CCRF-CEM leukemia
[20] = test system: HOP-92 NSCLC
[21] = test system: HL-60(TB) leukemia
[22] = test system: HCC-2998 colon
[23] = test system: SK-MEL-2 melanoma
[24] = test system: NCI-H226 lung
[25] = test system: HS 578T breast
[26] = test system: MALME-3M melanoma
[27] = test system: LOX IMVI melanoma
[28] = test system: RXF 393 renal
[29] = test system: COLO 205 colon
[30] = test system: 786-0 renal
[31] = test system: SW-620 colon
[32] = test system: NCI-H23 lung
[33] = test system: HCT-15 colon
[34] = test system: K-562 leukemia
[35] = test system: CAKI-1 renal
[36] = test system: HT29 colon
[37] = test system: SF-268 CNS
[38] = test system: OVCAR-8 ovarian
[39] = test system: SR leukemia
[40] = test system: KM12 colon
[41] = test system: OVCAR-3 ovarian
[42] = test system: A498 renal
[43] = test system: U251 CNS
[44] = test system: HCT-116 colon
[45] = test system: ACHN renal
[46] = test system: SK-MEL-28 melanoma
[47] = test system: MOLT-4 leukemia
[48] = test system: OVCAR-5 ovarian
[49] = test system: UO-31 renal
[50] = test system: PC-3 prostate
[51] = test system: UACC-257 melanoma
[52] = test system: MCF7 breast
[53] = test system: SK-MEL-5 melanoma
[54] = test system: TK-10 renal
[55] = test system: UACC-62 melanoma
[56] = test system: NCI-H522 lung
[57] = test system: SF-295 CNS
[58] = test system: EKVX NSCLC

`COc1ccc(/C=C2\CCCC3=C2NC(C)=NC3c2ccc(OC)c(OC)c2)cc1OC` (stereo not given) gave a GI50 [1] of 1.05 µM, a TGI [1] greater than 100 µM and a GI50 [2] of 50.6 µM. For the same molecule, the TGI [2] was greater than 100 µM, the GI50 [3] was 15.2 µM and the TGI [3] was greater than 100 µM. The GI50 [4] was 23.7 µM, the TGI [4] was greater than 100 µM and the GI50 [5] was 67.1 µM. For the same molecule, the TGI [5] was greater than 100 µM, the GI50 [6] was 47.7 µM and the TGI [6] was greater than 100 µM. The GI50 [7] was 16.5 µM, the TGI [7] was greater than 100 µM and the GI50 [8] was 14.7 µM. For the same molecule, the TGI [8] was greater than 100 µM, the GI50 [9] was 0.848 µM and the TGI [9] was 56.3 µM. The GI50 [10] was 3.75 µM, the TGI [10] was 38.8 µM and the GI50 [11] was 27.5 µM. For the same molecule, the TGI [11] was greater than 100 µM, the GI50 [12] was 32 µM and the TGI [12] was greater than 100 µM. The GI50 [13] was 12.9 µM, the TGI [13] was 75.3 µM and the GI50 [14] was 12.4 µM. It also gave a TGI [14] greater than 100 µM, a GI50 [15] of 53.7 µM and a TGI [15] greater than 100 µM. It also gave a GI50 [16] of 19.2 µM, a TGI [16] greater than 100 µM and a GI50 [17] of 18.6 µM. For the same molecule, the TGI [17] was greater than 100 µM, the GI50 [18] was 63.9 µM and the TGI [18] was greater than 100 µM. It also gave a GI50 [19] of 2.75 µM, a TGI [19] greater than 100 µM and a GI50 [20] of 18.9 µM. It also gave a TGI [20] of 92.6 µM, a GI50 [21] of 5.84 µM and a TGI [21] greater than 100 µM. For the same molecule, the GI50 [22] was greater than 100 µM, the TGI [22] was greater than 100 µM and the GI50 [23] was 15.9 µM. The TGI [23] was greater than 100 µM, the GI50 [24] was 12.2 µM and the TGI [24] was 99.8 µM. The GI50 [25] was 39.1 µM, the TGI [25] was greater than 100 µM and the GI50 [26] was 22.2 µM. It also gave a TGI [26] greater than 100 µM, a GI50 [27] of 51.1 µM and a TGI [27] greater than 100 µM. For the same molecule, the GI50 [28] was 4.02 µM, the TGI [28] was 16.3 µM and the GI50 [29] was 5.5 µM. For the same molecule, the TGI [29] was greater than 100 µM, the GI50 [30] was 33.7 µM and the TGI [30] was greater than 100 µM. It also gave a GI50 [31] of 7.69 µM, a TGI [31] greater than 100 µM and a GI50 [32] of 28.6 µM. For the same molecule, the TGI [32] was greater than 100 µM, the GI50 [33] was 3.52 µM and the TGI [33] was greater than 100 µM. It also gave a GI50 [34] of 4.54 µM, a TGI [34] greater than 100 µM and a GI50 [35] of 21.4 µM. The TGI [35] was greater than 100 µM, the GI50 [36] was 21.7 µM and the TGI [36] was greater than 100 µM. The GI50 [37] was 21 µM, the TGI [37] was greater than 100 µM and the GI50 [38] was 4.68 µM. It also gave a TGI [38] greater than 100 µM, a GI50 [39] of 1.99 µM and a TGI [39] greater than 100 µM. The GI50 [40] was 61.2 µM, the TGI [40] was greater than 100 µM and the GI50 [41] was 5.47 µM. The TGI [41] was greater than 100 µM, the GI50 [42] was 16.4 µM and the TGI [42] was greater than 100 µM. For the same molecule, the GI50 [43] was 23.4 µM, the TGI [43] was greater than 100 µM and the GI50 [44] was 2.39 µM. It also gave a TGI [44] of 22.1 µM, a GI50 [45] of 6.74 µM and a TGI [45] greater than 100 µM. The GI50 [46] was greater than 100 µM, the TGI [46] was greater than 100 µM and the GI50 [47] was 24.8 µM. For the same molecule, the TGI [47] was greater than 100 µM, the GI50 [48] was 71 µM and the TGI [48] was greater than 100 µM. It also gave a GI50 [49] of 31.1 µM, a TGI [49] greater than 100 µM and a GI50 [50] of 37.4 µM. The TGI [50] was greater than 100 µM, the GI50 [51] was 10.9 µM and the TGI [51] was greater than 100 µM. It also gave a GI50 [52] of 2.44 µM, a TGI [52] greater than 100 µM and a GI50 [53] of 9.43 µM. For the same molecule, the TGI [53] was greater than 100 µM, the GI50 [54] was 12.3 µM and the TGI [54] was 74.7 µM. It also gave a GI50 [55] of 12.9 µM and a TGI [55] greater than 100 µM.

With `O=C(CC(C(=O)c1cccs1)c1ccsc1)c1ccsc1` (stereo not given) the TGI [1] was greater than 100 µM, the TGI [2] was greater than 100 µM and the TGI [3] was 63.6 µM. It also gave a TGI [4] greater than 100 µM, a TGI [5] greater than 100 µM and a TGI [56] of 50 µM. For the same molecule, the TGI [6] was greater than 100 µM, the TGI [7] was greater than 100 µM and the TGI [8] was greater than 100 µM. For the same molecule, the TGI [9] was greater than 100 µM, the TGI [10] was greater than 100 µM and the TGI [11] was 94.8 µM. The TGI [57] was 93.3 µM, the TGI [12] was greater than 100 µM and the TGI [13] was greater than 100 µM. The TGI [14] was greater than 100 µM, the TGI [15] was greater than 100 µM and the TGI [16] was greater than 100 µM. It also gave a TGI [17] of 50.8 µM, a TGI [18] greater than 100 µM and a TGI [19] greater than 100 µM. For the same molecule, the TGI [20] was greater than 100 µM, the TGI [21] was greater than 100 µM and the TGI [22] was greater than 100 µM. It also gave a TGI [25] of 71.2 µM, a TGI [26] greater than 100 µM and a TGI [27] greater than 100 µM. It also gave a TGI [28] greater than 100 µM, a TGI [29] of 53.5 µM and a TGI [30] greater than 100 µM. For the same molecule, the TGI [31] was greater than 100 µM, the TGI [32] was greater than 100 µM and the TGI [33] was greater than 100 µM. It also gave a TGI [34] greater than 100 µM, a TGI [36] greater than 100 µM and a TGI [37] greater than 100 µM. For the same molecule, the TGI [38] was greater than 100 µM, the TGI [39] was greater than 100 µM and the TGI [40] was greater than 100 µM. The TGI [41] was greater than 100 µM, the TGI [42] was 57.9 µM and the TGI [43] was greater than 100 µM. It also gave a TGI [44] greater than 100 µM, a TGI [45] greater than 100 µM and a TGI [46] greater than 100 µM. It also gave a TGI [47] greater than 100 µM, a TGI [48] greater than 100 µM and a TGI [49] greater than 100 µM. The TGI [50] was greater than 100 µM, the TGI [51] was greater than 100 µM and the TGI [52] was greater than 100 µM. It also gave a TGI [53] of 64 µM, a TGI [58] greater than 100 µM and a TGI [54] greater than 100 µM. The TGI [55] was greater than 100 µM.
